Our source for the IC50 values is patent US11655235B2, “Pyrrolidine and piperidine compounds” (YUHAN CORPORATION, priority 2019, dated 2023).

pIC50: −log10 of the molar value.

Assay [1] deals with DPP4 (Homo sapiens, UniProt P27487). Description: DPP4 inhibition, fluorogenic substrate H-Gly-Pro-AMC. In kind it is biochemical. On the set-up: purchased R&D Systems. The settings on record: recombinant human DPP4.
The target in assay [2] is T1, Recombinant human FAP (Homo sapiens, UniProt Q12884).
T1 construct: purchased R&D systems
T1 sequence (Q12884 1-760): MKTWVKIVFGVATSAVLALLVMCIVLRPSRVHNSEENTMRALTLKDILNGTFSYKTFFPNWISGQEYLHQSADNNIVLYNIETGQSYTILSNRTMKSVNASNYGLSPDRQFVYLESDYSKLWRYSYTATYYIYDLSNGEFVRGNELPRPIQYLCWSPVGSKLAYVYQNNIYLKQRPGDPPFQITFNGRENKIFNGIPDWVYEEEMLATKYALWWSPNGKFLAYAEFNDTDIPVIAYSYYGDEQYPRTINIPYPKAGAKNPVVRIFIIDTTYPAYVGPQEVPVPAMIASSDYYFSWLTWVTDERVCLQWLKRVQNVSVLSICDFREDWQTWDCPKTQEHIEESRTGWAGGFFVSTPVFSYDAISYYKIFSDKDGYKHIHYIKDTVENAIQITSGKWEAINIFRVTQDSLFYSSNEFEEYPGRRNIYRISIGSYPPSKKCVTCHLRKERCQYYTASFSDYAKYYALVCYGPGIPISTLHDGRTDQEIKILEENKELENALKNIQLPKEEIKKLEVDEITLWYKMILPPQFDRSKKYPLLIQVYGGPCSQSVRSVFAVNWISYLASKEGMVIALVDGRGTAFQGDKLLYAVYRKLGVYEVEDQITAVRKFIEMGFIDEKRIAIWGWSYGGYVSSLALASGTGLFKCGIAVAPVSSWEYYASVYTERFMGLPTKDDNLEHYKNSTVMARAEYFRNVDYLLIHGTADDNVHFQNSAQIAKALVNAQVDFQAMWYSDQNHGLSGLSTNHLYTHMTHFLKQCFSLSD
The assay can be described thus: FAP FRET assay, FGF21-sequence FRET peptide substrate. In kind it is biochemical. The settings on record: FRET peptide with human FGF21 sequence, 6 μM, 37° C. On the procedure: The compounds according to the present technology were evaluated in terms of the inhibitory effect on the activity of dipeptidyl peptidases including FAP by using a substrate producing fluorescent substances upon enzymatic decomposition. The test was conducted at 25° C. to get a final reaction volume of 100 μL in a 96 black well plate. […] Briefly, the test compounds were dissolved in dimethyl sulfoxide (DMSO) at a concentration of 20 mM and then subjected to serial dilution, thereby creating an 8 point curve. As for the control group, a 6 point curve created by serial dilution of Talabostat in the same buffer solution was used. Fluorescence intensity was measured using a microplate reader (Flexstation3, Molecular Devices) under the wavelength condition exciting at 380 nm and reading the emission at 460 nm. The inhibitory effect of the test compounds was measured as a decrease (%) in the signal rate as compared to the control group without any inhibitor. Data was fixed to a logistic model with four variables and IC50 value was calculated using GraphPad Prism program. For the FAP FRET assay, recombinant human FAP (R&D systems) was diluted with 50 mM HEPES (pH 7.2) buffer comprising 150 mM of sodium chloride, 0.1 mg/ml of bovine serum albumin (BSA) and 1 mM EDTA to be 10 ng per final reaction. The test compounds were subjected to serial dilution in a buffer under the condition containing up to 0.1% of DMSO. FRET peptides containing human FGF21 sequence ([…]) conjugated with HyLite Fluor 488 and dark quencher QXL 520 (Anaspec) was used as a substrate. By dissolving in DMSO and then diluting in the same buffer, the substrate was added to be 6 μM per final reaction. All reactions of FRET assay was conducted at 37° C.

Chain of DPP4 (P27487 whole entry): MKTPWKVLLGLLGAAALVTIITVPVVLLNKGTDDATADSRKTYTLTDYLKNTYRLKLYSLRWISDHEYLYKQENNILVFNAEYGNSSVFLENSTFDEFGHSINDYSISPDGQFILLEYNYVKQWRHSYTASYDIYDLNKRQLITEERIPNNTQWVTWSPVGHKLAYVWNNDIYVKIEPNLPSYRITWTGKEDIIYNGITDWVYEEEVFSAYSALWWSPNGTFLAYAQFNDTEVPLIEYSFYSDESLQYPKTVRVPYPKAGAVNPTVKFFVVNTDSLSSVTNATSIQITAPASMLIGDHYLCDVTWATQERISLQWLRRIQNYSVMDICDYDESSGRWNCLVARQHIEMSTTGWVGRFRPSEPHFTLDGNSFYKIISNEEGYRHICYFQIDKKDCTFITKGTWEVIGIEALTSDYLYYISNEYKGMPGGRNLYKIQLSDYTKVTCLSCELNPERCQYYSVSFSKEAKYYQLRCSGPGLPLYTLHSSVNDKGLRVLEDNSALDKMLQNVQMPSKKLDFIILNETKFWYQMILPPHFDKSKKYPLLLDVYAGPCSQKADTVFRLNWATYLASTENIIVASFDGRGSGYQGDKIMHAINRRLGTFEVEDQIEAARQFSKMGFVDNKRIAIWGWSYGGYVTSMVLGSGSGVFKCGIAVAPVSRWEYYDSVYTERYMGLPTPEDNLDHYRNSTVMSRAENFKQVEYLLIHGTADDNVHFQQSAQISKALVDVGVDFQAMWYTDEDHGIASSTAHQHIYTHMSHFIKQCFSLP

Consider `N#C[C@@H]1C[C@H](F)CN1C(=O)CN1CC[C@H](Nc2cnc3nc(Cl)ccc3c2)C1` [Example 273, (2S,4S)-4-fluoro-1-[2-[(3S)-3-[(7-chloro-1,8-naphthyridin-3-yl)amino]pyrrolidin-1-yl]acetyl]pyrrolidine-2-carbonitrile], for which the figures for the pIC50 in assay [1] and in assay [2] were 6.28 and 7.72, respectively.
Regarding `CC(=O)Nc1ccc(NC2CCN(CC(=O)N3CCC[C@H]3C#N)CC2)c2cccnc12` [Example 408, N-[5-[[1-[2-oxo-2-[(2S)-2-cyanopyrrolidin-1-yl]ethyl]-4-piperidyl]amino]-8-quinolyl]acetamide], the pIC50 (usually the IC50 on a negative log10 scale, so that one unit is a factor of ten) was 5.09 in assay [1] and 7.89 in assay [2].
Regarding `COc1ccc2c(N[C@@H]3CCN(CC(=O)N4C[C@@H](F)C[C@H]4C#N)C3)ccnc2c1` [Example 193, (2S,4S)-4-fluoro-1-[2-[(3R)-3-[(7-methoxy-4-quinolyl)amino]pyrrolidin-1-yl]acetyl]pyrrolidine-2-carbonitrile], the values for the pIC50 in assay [1] and in assay [2] were 5.04 and 7.61, respectively.
On to `COc1ccc2ncc(N(C)C3CCN(CC(=O)N4CCC[C@H]4C#N)CC3)cc2c1` [Example 323, (S)-1-(2-(4-((6-methoxyquinolin-3-yl)(methyl)amino)piperidin-1-yl)acetyl)pyrrolidine-2-carbonitrile], for which the pIC50 in assay [1] was at most 4.00; in assay [2], 8.24.
In the same order, the values of `Cc1cc(N[C@@H]2CCN(CC(=O)N3CCC[C@H]3C#N)C2)cc2cccnc12` [Example 220, (2S)-1-[2-[(3R)-3-[(8-methyl-6-quinolyl)amino]pyrrolidin-1-yl]acetyl]pyrrolidine-2-carbonitrile] are 4.88 and 8.24.
In the same order, the values of `N#C[C@@H]1C[C@H](F)CN1C(=O)CN1CCC(Nc2cc(F)c3ncccc3c2)CC1` [Example 375, (2S,4S)-4-fluoro-1-[2-[4-[(8-fluoro-6-quinolyl)amino]-1-piperidyl]acetyl]pyrrolidine-2-carbonitrile] are 5.16 and 7.64.
On the same counts, the results for `Cc1ccc2nccc(N[C@@H]3CCN(CC(=O)N4C[C@@H](F)C[C@H]4C#N)C3)c2c1` [Example 187, (2S,4S)-4-fluoro-1-[2-[(3R)-3-[(6-methyl-4-quinolyl)amino]pyrrolidin-1-yl]acetyl]pyrrolidine-2-carbonitrile] are 4.75 and 7.62.
As to `N#Cc1ccc2c(OC3CCN(CC(=O)N4CCC[C@H]4C#N)CC3)cccc2n1` [Example 430, 5-[[1-[2-oxo-2-[(2S)-2-cyanopyrrolidin-1-yl]ethyl]-4-piperidyl]oxy]quinoline-2-carbonitrile], the pIC50 in assay [1] was 4.53; in assay [2], 7.61.
For the compound `N#C[C@@H]1C[C@H](F)CN1C(=O)CN1CCC(Nc2ccnc3cccnc23)CC1` [Example 380, (2S,4S)-4-fluoro-1-[2-[4-(1,5-naphthyridin-4-ylamino)-1-piperidyl]acetyl]pyrrolidine-2-carbonitrile], the pIC50 is 5.09 in assay [1] and 7.11 in assay [2].
In the same order, the values of `N#C[C@@H]1C[C@H](F)CN1C(=O)CN1CCC(Nc2cnc3ncccc3c2)CC1` [Example 368, (2S,4S)-4-fluoro-1-[2-[4-(1,8-naphthyridin-3-ylamino)-1-piperidyl]acetyl]pyrrolidine-2-carbonitrile] are at most 5.00 and 7.44.
In the same order, the values of `N#C[C@@H]1CCCN1C(=O)CN1CC[C@@H](Nc2cc(F)c3ncccc3c2)C1` [Example 221, (2S)-1-[2-[(3R)-3-[(8-fluoro-6-quinolyl)amino]pyrrolidin-1-yl]acetyl]pyrrolidine-2-carbonitrile] are 4.96 and 8.12.
In the same order, the values of `COc1ccc2nccc(N[C@@H]3CCN(CC(=O)N4C[C@@H](F)C[C@H]4C#N)C3)c2c1` [Example 188, (2S,4S)-4-fluoro-1-[2-[(3R)-3-[(6-methoxy-4-quinolyl)amino]pyrrolidin-1-yl]acetyl]pyrrolidine-2-carbonitrile] are 4.82 and 7.67.
For `Cc1ccc2ncc(N(C)C3CCN(CC(=O)N4C[C@@H](F)C[C@H]4C#N)CC3)cc2c1` [Example 326, (2S,4S)-4-fluoro-1-[2-[4-[methyl-(6-methyl-3-quinolyl)amino]-1-piperidyl]acetyl]pyrrolidine-2-carbonitrile], the pIC50 in assay [1] is 4.30; in assay [2] it was 8.06.
In the same order, the values of `N#C[C@@H]1C[C@H](F)CN1C(=O)CN1CCC(Nc2ccnc3c(F)cccc23)CC1` [Example 345, (2S,4S)-4-fluoro-1-[2-[4-[(8-fluoro-4-quinolyl)amino]-1-piperidyl]acetyl]pyrrolidine-2-carbonitrile] are 5.19 and 7.71.
For `N#C[C@@H]1CCCN1C(=O)CN1CCC(Nc2cc(=O)oc3ccccc23)CC1` [Example 378, (2S)-1-[2-[4-[(2-oxochromen-4-yl)amino]-1-piperidyl]acetyl]pyrrolidine-2-carbonitrile], the figures for the pIC50 in assay [1] and in assay [2] were 4.61 and 7.00, respectively.
On to `N#C[C@@H]1CCCN1C(=O)CN1CCC(Oc2ccnc3cc(Cl)ccc23)CC1` [Example 428, (2S)-1-[2-[4-[(7-chloro-4-quinolyl)oxy]-1-piperidyl]acetyl]pyrrolidine-2-carbonitrile], for which the pIC50 in assay [1] was 4.49; in assay [2] it was 7.76.
In the same order, the values of `N#C[C@@H]1CCCN1C(=O)CN1CC[C@@H](Nc2ccc3nc(C(F)(F)F)ccc3c2)C1` [Example 217, (2S)-1-[2-[(3R)-3-[[2-(trifluoromethyl)-6-quinolyl]amino]pyrrolidin-1-yl]acetyl]pyrrolidine-2-carbonitrile] are 4.54 and 8.06.
In the same order, the values of `COc1cccc2cc(N(C)C3CCN(CC(=O)N4C[C@@H](F)C[C@H]4C#N)CC3)cnc12` [Example 329, (2S,4S)-4-fluoro-1-[2-[4-[(8-methoxy-3-quinolyl)-methyl-amino]-1-piperidyl]acetyl]pyrrolidine-2-carbonitrile] are 4.58 and 8.12.
Take `CN(c1cc(F)cc2ncccc12)[C@H]1CCN(CC(=O)N2C[C@@H](F)C[C@H]2C#N)C1` [Example 157, (2S,4S)-4-fluoro-1-(2-((S)-3-((7-fluoroquinolin-5-yl)(methyl)amino)pyrrolidin-1-yl)acetyl)pyrrolidine-2-carbonitrile]: the pIC50 was 5.67 in assay [1] and 7.69 in assay [2].
In the case of `CCN(c1cccc2ncccc12)C1CCN(CC(=O)N2C[C@@H](F)C[C@H]2C#N)CC1` [Example 305, (2S,4S)-1-[2-[4-[ethyl(5-quinolyl)amino]-1-piperidyl]acetyl]-4-fluoro-pyrrolidine-2-carbonitrile], the pIC50 was 5.68 in assay [1] and 7.29 in assay [2].
On the same counts, the results for `N#C[C@@H]1C[C@H](F)CN1C(=O)CN1CC[C@@H](Nc2ccnc3c(F)cccc23)C1` [Example 194, (2S,4S)-4-fluoro-1-[2-[(3R)-3-[(8-fluoro-4-quinolyl)amino]pyrrolidin-1-yl]acetyl]pyrrolidine-2-carbonitrile] are 4.71 and 7.96.
In the same order, the values of `CN(C(=O)c1ccc(NC2CCN(CC(=O)N3C[C@@H](F)C[C@H]3C#N)CC2)c2cccnc12)c1ccccc1` [Example 392, N-methyl-5-[[1-[2-oxo-2-[(2S,4S)-2-cyano-4-fluoro-pyrrolidin-1-yl]ethyl]-4-piperidyl]amino]-N-phenyl-quinoline-8-carboxamide] are 5.68 and 7.30.
On the same counts, the results for `N#C[C@@H]1C[C@H](F)CN1C(=O)CN1CCC(Nc2ccc3nc(C(F)(F)F)ccc3c2)CC1` [Example 381, (2S,4S)-4-fluoro-1-[2-[4-[[2-(trifluoromethyl)-6-quinolyl]amino]-1-piperidyl]acetyl]pyrrolidine-2-carbonitrile] are 4.97 and 7.84.
